Measurements from patent US20180153995A1, “USE OF ANTIMICROBIAL POLYMERS FOR RE-SENSITIZATION OF MICROORGANISMS UPON EMERGENCE OF RESISTANCE TO ANTI-MICROBIAL AGENTS” (Technion Research & Development Foundation Limited, priority 2008, published 2018).
Where two headings read alike, the source gives them in different places.

Experiments:
[1] = test system: E. coli AG100; experiment: Antibiotic MIC with or without sub-MIC polymer (Tables 20, 21); format: cell-based, Escherichia coli
[2] = test system: P. mirabilis 1285; format: cell-based, Proteus mirabilis
[3] = test system: E. coli AG100/ks; experiment: Antibiotic MIC with or without sub-MIC polymer (Tables 20, 21); format: cell-based, Escherichia coli
[4] = test system: E. coli 16327; experiment: microbe, parasite or virus in culture
[5] = test system: P. mirabilis 1285; format: cell-based, Proteus mirabilis; settings: no polymer (None), Table 12
Procedure: (§1) MICs were determined by microdilution susceptibility testing in 96-well plates (by Nunc) using inocula of 10^5 bacteria per ml. Cell populations were evaluated by optical density measurements at 620 nm and were calibrated against a set of standards. Hundred (100) μl of a bacterial suspension were added to 100 μl of culture medium (control) or to 100 μl of culture medium containing various polymer concentrations in 2-fold serial dilutions. Inhibition of proliferation was determined by optical density measurements at 620 nm after an incubation period of 24 hours at 37° C.
100 μl of a bacterial suspension were added to 100 μl of culture medium (control) or to 100 μl of culture medium containing various antibiotic and C14(9-ene)KKNC12KNH2 (SEQ ID NO: 5) concentrations in 2-fold serial dilutions. Inhibition of proliferation was determined by optical density measurements at 620 nm after an incubation period of 24 hours at 37° C.

[6] = test system: E. coli D21; experiment: Antibiotic MIC with or without sub-MIC polymer (Tables 20, 21); format: cell-based, Escherichia coli
[7] = test system: P. aeruginosa 8732; experiment: Antibiotic MIC by microdilution with or without sub-MIC polymer; format: cell-based, Pseudomonas aeruginosa
Procedure: as §1
Inhibition of proliferation was determined by optical density measurements at 620 nm after an incubation period of 24 hours at 37° C.

[8] = test system: S. aureus 17314; experiment: as above; format: cell-based, Staphylococcus aureus
[9] = test system: MRSA 15852; format: cell-based, Staphylococcus aureus; settings: S. aureus 15852
How it was run: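 Checkerboard combination testing against MRSA 15852; FIC index = A/MICA + B/MICB, with A and B the MICs of each agent in combination and MICA, MICB the MICs alone. Index <0.5 read as clear re-sensitizing, 0.5–4 as marginal or null, >4 as antagonism.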

CC1(C)S[C@@H]2[C@H](NC(=O)Cc3ccccc3)C(=O)N2[C@H]1C(=O)O [Penicillin G, penicillin G]
Antibiotic MIC, None ([1]; antibiotic alone (Table 20)): 32 µg/mL
Antibiotic MIC, None ([1]; antibiotic alone (Table 21)): 32 µg/mL
Antibiotic MIC in presence of C12K(NC8K)5NH2 (SEQ ID NO: 3), +¼ MIC ([1]; polymer at ¼ of its MIC): 16 µg/mL
Antibiotic MIC in presence of C12K(NC8K)7NH2 (SEQ ID NO: 4), +¼ MIC ([1]; polymer at ¼ of its MIC): 16 to 32 µg/mL
Antibiotic MIC in presence of C12K(NC8K)5NH2 (SEQ ID NO: 3), +½ MIC ([1]; polymer at ½ of its MIC): 8 µg/mL
Antibiotic MIC in presence of C12K(NC8K)7NH2 (SEQ ID NO: 4), +½ MIC ([1]; polymer at ½ of its MIC): 8 µg/mL
Antibiotic MIC in presence of C12K(NC8K)5NH2 (SEQ ID NO: 3), +⅓ MIC ([1]; polymer at ⅓ of its MIC): 16 µg/mL
Antibiotic MIC in presence of C12K(NC8K)7NH2 (SEQ ID NO: 4), +⅓ MIC ([1]; polymer at ⅓ of its MIC): 8 to 16 µg/mL
Antibiotic MIC ([2]; +¼ MIC (1.6 μM) C12K(KNC12K)2NH2): 512 µg/mL
Antibiotic MIC ([2]; +½ MIC (3.12 μM) C12K(KNC12K)2NH2): 512 µg/mL
Antibiotic MIC ([2]; +⅓ MIC (2.1 μM) C12K(KNC12K)2NH2): 512 µg/mL
Antibiotic MIC, None ([3]; antibiotic alone (Table 20)): >512 µg/mL
Antibiotic MIC, None ([3]; antibiotic alone (Table 21)): >512 µg/mL
Antibiotic MIC in presence of C12K(NC8K)5NH2 (SEQ ID NO: 3), +¼ MIC ([3]; polymer at ¼ of its MIC): >512 µg/mL
Antibiotic MIC in presence of C12K(NC8K)5NH2 (SEQ ID NO: 3), +½ MIC ([3]; polymer at ½ of its MIC): >512 µg/mL
Antibiotic MIC in presence of C12K(NC8K)5NH2 (SEQ ID NO: 3), +⅓ MIC ([3]; polymer at ⅓ of its MIC): >512 µg/mL
Antibiotic MIC [4]: >512 µg/mL
Antibiotic MIC ([4]; E. coli 16327, +¼ MIC (1.6 μM) C12K(KNC12K)2NH2): >512 µg/mL
Antibiotic MIC ([4]; E. coli 16327, +½ MIC (3.12 μM) C12K(KNC12K)2NH2): >512 µg/mL
Antibiotic MIC ([4]; E. coli 16327, +⅓ MIC (2.1 μM) C12K(KNC12K)2NH2): >512 µg/mL
Antibiotic MIC ([4]; E. coli 16327, no polymer (None), Table 9): >512 µg/mL
Antibiotic MIC ([4]; E. coli 16327, no polymer (None), Table 10): >512 µg/mL
Antibiotic MIC ([4]; E. coli 16327, no polymer (None), Table 12): >512 µg/mL
MIC, Alone ([4]; E. coli U16327, antibiotic alone (Table 22)): >512 µg/mL
MIC, ¼ + MIC OAK ([4]; E. coli U16327, with C12K(KNC10K)3NH2 (SEQ ID NO: 10) at ¼ of its MIC): >512 µg/mL
MIC, ½ + MIC OAK ([4]; E. coli U16327, with C12K(KNC10K)3NH2 (SEQ ID NO: 10) at ½ of its MIC): 512 µg/mL
MIC, ⅓ + MIC OAK ([4]; E. coli U16327, with C12K(KNC10K)3NH2 (SEQ ID NO: 10) at ⅓ of its MIC): >512 µg/mL
Antibiotic MIC, None ([4]; E. coli U-16327, antibiotic alone (Table 15)): >512 µg/mL
Antibiotic MIC in presence of C12K(NC8K)7NH2 (SEQ ID NO: 4), +¼ MIC ([4]; E. coli U-16327, polymer at ¼ of its MIC): >512 µg/mL
Antibiotic MIC in presence of C12K(NC8K)7NH2 (SEQ ID NO: 4), +½ MIC ([4]; E. coli U-16327, polymer at ½ of its MIC): 512 µg/mL
Antibiotic MIC in presence of C12K(NC8K)7NH2 (SEQ ID NO: 4), +⅓ MIC ([4]; E. coli U-16327, polymer at ⅓ of its MIC): >512 µg/mL
Antibiotic MIC [5]: 512 µg/mL
Antibiotic MIC, None ([6]; antibiotic alone (Table 20)): 512 µg/mL
Antibiotic MIC, None ([6]; antibiotic alone (Table 21)): 512 µg/mL
Antibiotic MIC in presence of C12K(NC8K)5NH2 (SEQ ID NO: 3), +¼ MIC ([6]; polymer at ¼ of its MIC): 512 µg/mL
Antibiotic MIC in presence of C12K(NC8K)7NH2 (SEQ ID NO: 4), +¼ MIC ([6]; polymer at ¼ of its MIC): 512 µg/mL
Antibiotic MIC in presence of C12K(NC8K)5NH2 (SEQ ID NO: 3), +½ MIC ([6]; polymer at ½ of its MIC): 256 µg/mL
Antibiotic MIC in presence of C12K(NC8K)7NH2 (SEQ ID NO: 4), +½ MIC ([6]; polymer at ½ of its MIC): 256 µg/mL
Antibiotic MIC in presence of C12K(NC8K)5NH2 (SEQ ID NO: 3), +⅓ MIC ([6]; polymer at ⅓ of its MIC): 256 to 512 µg/mL
Antibiotic MIC in presence of C12K(NC8K)7NH2 (SEQ ID NO: 4), +⅓ MIC ([6]; polymer at ⅓ of its MIC): 512 µg/mL
Antibiotic MIC [7]: 512 µg/mL
Antibiotic MIC ([7]; P. aeruginosa 8732, +½ MIC (3.12 μM) C16(9-ene)KKNC12KNH2): 512 µg/mL
Antibiotic MIC ([7]; P. aeruginosa 8732, +⅓ MIC (2.1 μM) C16(9-ene)KKNC12KNH2): 512 µg/mL
Antibiotic MIC ([7]; P. aeruginosa 8732, no polymer (None), Table 10): 512 µg/mL
Antibiotic MIC [8]: 64 to 128 µg/mL
Antibiotic MIC ([8]; S. aureus 17314, +¼ MIC (1.6 μM) C12K(KNC12K)2NH2): 128 µg/mL
Antibiotic MIC ([8]; S. aureus 17314, +¼ MIC (1.6 μM) C14(9-ene)KKNC12KNH2): 8 µg/mL
Antibiotic MIC ([8]; S. aureus 17314, +¼ MIC (1.6 μM) C16(9-ene)KKNC12KNH2): 2 µg/mL
Antibiotic MIC ([8]; S. aureus 17314, +½ MIC (3.12 μM) C12K(KNC12K)2NH2): 64 µg/mL
Antibiotic MIC ([8]; S. aureus 17314, +½ MIC (3.12 μM) C12KKNC12KNH2): 64 µg/mL
Antibiotic MIC ([8]; S. aureus 17314, +½ MIC (3.12 μM) C14(9-ene)KKNC12KNH2): 6 µg/mL
Antibiotic MIC ([8]; S. aureus 17314, +½ MIC (3.12 μM) C16(9-ene)KKNC12KNH2): 0.5 µg/mL
Antibiotic MIC ([8]; S. aureus 17314, +⅓ MIC (2.1 μM) C12K(KNC12K)2NH2): 128 µg/mL
Antibiotic MIC ([8]; S. aureus 17314, +⅓ MIC (2.1 μM) C14(9-ene)KKNC12KNH2): 8 µg/mL
Antibiotic MIC ([8]; S. aureus 17314, +⅓ MIC (2.1 μM) C16(9-ene)KKNC12KNH2): 1 µg/mL
Antibiotic MIC ([8]; S. aureus 17314, no polymer (None), Table 9): 8 µg/mL
Antibiotic MIC ([8]; S. aureus 17314, no polymer (None), Table 10): 8 to 16 µg/mL
Antibiotic MIC ([8]; S. aureus 17314, no polymer (None), Table 11): 128 µg/mL
Antibiotic MIC ([8]; S. aureus 17314, no polymer (None), Table 12): 128 µg/mL
Antibiotic MIC ([9]; +¼ MIC (1.6 μM) C12(5-ene)KKNC12KNH2): 32 µg/mL
Antibiotic MIC ([9]; +¼ MIC (1.6 μM) C12KKNC12KNH2): 64 µg/mL
Antibiotic MIC ([9]; +½ MIC (3.12 μM) C12(5-ene)KKNC12KNH2): 32 µg/mL
Antibiotic MIC ([9]; +½ MIC (3.12 μM) C12KKNC12KNH2): 64 µg/mL
Antibiotic MIC ([9]; +⅓ MIC (2.1 μM) C12(5-ene)KKNC12KNH2): 32 µg/mL
Antibiotic MIC ([9]; +⅓ MIC (2.1 μM) C12KKNC12KNH2): 64 µg/mL
Antibiotic MIC ([9]; no polymer (None), Table 8): 32 µg/mL
Antibiotic MIC ([9]; no polymer (None), Table 11): 64 µg/mL
